Test results as given in the supplement of paper PMC10307832.

Assays:
Assay in all cases: relative viability (nuclei count vs DMSO), 5 days (fraction); higher = more cells survive
CAL-12T = tested on: CAL-12T
Outline: (§1)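 Lung cancer cell lines in 1536-well plates were dosed by pin tool the day after seeding, either with one drug alone or with a fixed anchor-drug dose plus five library-drug doses (not always all listed) in √10 steps. After 5 days, cells were fixed and their nuclei stained in one step (final 0.05% Triton X-100, 1% formaldehyde, 1 ug/ml Hoechst), then counted on 4× images. Relative viability is the nuclei count in treated wells divided by that in vehicle wells. Values are medians of duplicate plates.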

EKVX = tested on: EKVX
Outline: as §1

H3255 = tested on: H3255
Outline: as §1

HCC-15 = tested on: HCC-15
Outline: as §1

HCC-827 = tested on: HCC-827
Outline: as §1

LCLC-97TM1 = tested on: LCLC-97TM1
Outline: as §1

LK-2 = tested on: LK-2
Outline: as §1

NCI-H1355 = tested on: NCI-H1355
Outline: as §1

NCI-H1563 = tested on: NCI-H1563
Outline: as §1

NCI-H1734 = tested on: NCI-H1734
Outline: as §1

NCI-H1755 = tested on: NCI-H1755
Outline: as §1

NCI-H1975 = tested on: NCI-H1975
Outline: as §1

NCI-H2228 = tested on: NCI-H2228
Outline: as §1

NCI-H2405 = tested on: NCI-H2405
Outline: as §1

NCI-H322M = tested on: NCI-H322M
Outline: as §1

NCI-H520 = tested on: NCI-H520
Outline: as §1

NCI-H661 = tested on: NCI-H661
Outline: as §1

PC-14 = tested on: PC-14
Outline: as §1

PC-3 [JPC-3] = tested on: PC-3 [JPC-3]
Outline: as §1

RERF-LC-KJ = tested on: RERF-LC-KJ
Outline: as §1

Nc1ccn([C@@H]2O[C@H](CO)[C@@H](O)[C@@H]2O)c(=O)n1 [Cytarabine] + Cc1nc(NC(=O)N2CCC[C@H]2C(N)=O)sc1-c1ccnc(C(C)(C)C(F)(F)F)c1 [Alpelisib] (partner 2 µM)
relative viability (CAL-12T; first compound 0.005 µM): 1.25
relative viability (CAL-12T; first compound 0.01581 µM): 1.44
relative viability (CAL-12T; first compound 0.05 µM): 1.1
relative viability (CAL-12T; first compound 0.1581 µM): 0.514
relative viability (CAL-12T; first compound 0.5 µM): 0.201
relative viability (EKVX; first compound 0.005 µM): 0.867
relative viability (EKVX; first compound 0.01581 µM): 0.893
relative viability (EKVX; first compound 0.05 µM): 0.818
relative viability (EKVX; first compound 0.1581 µM): 0.371
relative viability (EKVX; first compound 0.5 µM): 0.211
relative viability (H3255; first compound 0.005 µM): 0.757
relative viability (H3255; first compound 0.01581 µM): 0.673
relative viability (H3255; first compound 0.05 µM): 0.566
relative viability (H3255; first compound 0.1581 µM): 0.524
relative viability (H3255; first compound 0.5 µM): 0.469
relative viability (HCC-15; first compound 0.005 µM): 0.832
relative viability (HCC-15; first compound 0.01581 µM): 0.878
relative viability (HCC-15; first compound 0.05 µM): 0.844
relative viability (HCC-15; first compound 0.1581 µM): 0.745
relative viability (HCC-15; first compound 0.5 µM): 0.546
relative viability (HCC-827; first compound 0.005 µM): 0.697
relative viability (HCC-827; first compound 0.01581 µM): 0.448
relative viability (HCC-827; first compound 0.05 µM): 0.467
relative viability (HCC-827; first compound 0.1581 µM): 0.242
relative viability (HCC-827; first compound 0.5 µM): 0.197
relative viability (LCLC-97TM1; first compound 0.005 µM): 0.235
relative viability (LCLC-97TM1; first compound 0.01581 µM): 0.124
relative viability (LCLC-97TM1; first compound 0.1581 µM): 0.101
relative viability (LCLC-97TM1; first compound 0.5 µM): 0.0953
relative viability (LK-2; first compound 0.005 µM): 0.641
relative viability (LK-2; first compound 0.01581 µM): 0.716
relative viability (LK-2; first compound 0.05 µM): 0.381
relative viability (LK-2; first compound 0.1581 µM): 0.276
relative viability (LK-2; first compound 0.5 µM): 0.245
relative viability (NCI-H1355; first compound 0.005 µM): 0.825
relative viability (NCI-H1355; first compound 0.01581 µM): 0.758
relative viability (NCI-H1355; first compound 0.05 µM): 0.756
relative viability (NCI-H1355; first compound 0.1581 µM): 0.363
relative viability (NCI-H1355; first compound 0.5 µM): 0.264
relative viability (NCI-H1563; first compound 0.005 µM): 0.938
relative viability (NCI-H1563; first compound 0.01581 µM): 1.02
relative viability (NCI-H1563; first compound 0.05 µM): 0.845
relative viability (NCI-H1563; first compound 0.1581 µM): 0.888
relative viability (NCI-H1563; first compound 0.5 µM): 0.663
relative viability (NCI-H1734; first compound 0.005 µM): 0.39
relative viability (NCI-H1734; first compound 0.01581 µM): 0.265
relative viability (NCI-H1734; first compound 0.05 µM): 0.204
relative viability (NCI-H1734; first compound 0.1581 µM): 0.139
relative viability (NCI-H1755; first compound 0.005 µM): 0.925
relative viability (NCI-H1755; first compound 0.01581 µM): 0.878
relative viability (NCI-H1755; first compound 0.05 µM): 0.75
relative viability (NCI-H1755; first compound 0.1581 µM): 0.244
relative viability (NCI-H1755; first compound 0.5 µM): 0.273
relative viability (NCI-H1975; first compound 0.005 µM): 0.442
relative viability (NCI-H1975; first compound 0.01581 µM): 0.761
relative viability (NCI-H1975; first compound 0.05 µM): 0.801
relative viability (NCI-H1975; first compound 0.1581 µM): 0.418
relative viability (NCI-H1975; first compound 0.5 µM): 0.313
relative viability (NCI-H2228; first compound 0.005 µM): 0.403
relative viability (NCI-H2228; first compound 0.01581 µM): 0.201
relative viability (NCI-H2228; first compound 0.05 µM): 0.251
relative viability (NCI-H2228; first compound 0.1581 µM): 0.207
relative viability (NCI-H2228; first compound 0.5 µM): 0.164
relative viability (NCI-H2405; first compound 0.005 µM): 0.771
relative viability (NCI-H2405; first compound 0.01581 µM): 0.657
relative viability (NCI-H2405; first compound 0.05 µM): 0.512
relative viability (NCI-H2405; first compound 0.1581 µM): 0.527
relative viability (NCI-H2405; first compound 0.5 µM): 0.301
relative viability (NCI-H322M; first compound 0.005 µM): 0.68
relative viability (NCI-H322M; first compound 0.01581 µM): 0.607
relative viability (NCI-H322M; first compound 0.05 µM): 0.529
relative viability (NCI-H322M; first compound 0.1581 µM): 0.283
relative viability (NCI-H322M; first compound 0.5 µM): 0.291
relative viability (NCI-H520; first compound 0.005 µM): 0.697
relative viability (NCI-H520; first compound 0.01581 µM): 0.754
relative viability (NCI-H520; first compound 0.05 µM): 0.858
relative viability (NCI-H520; first compound 0.1581 µM): 0.688
relative viability (NCI-H520; first compound 0.5 µM): 0.447
relative viability (NCI-H661; first compound 0.005 µM): 0.811
relative viability (NCI-H661; first compound 0.01581 µM): 0.733
relative viability (NCI-H661; first compound 0.05 µM): 0.405
relative viability (NCI-H661; first compound 0.1581 µM): 0.24
relative viability (NCI-H661; first compound 0.5 µM): 0.214
relative viability (PC-14; first compound 0.005 µM): 0.838
relative viability (PC-14; first compound 0.01581 µM): 1.13
relative viability (PC-14; first compound 0.05 µM): 1.05
relative viability (PC-14; first compound 0.1581 µM): 0.512
relative viability (PC-14; first compound 0.5 µM): 0.357
relative viability (PC-3 [JPC-3]; first compound 0.005 µM): 0.95
relative viability (PC-3 [JPC-3]; first compound 0.01581 µM): 0.926
relative viability (PC-3 [JPC-3]; first compound 0.05 µM): 0.927
relative viability (PC-3 [JPC-3]; first compound 0.1581 µM): 0.634
relative viability (PC-3 [JPC-3]; first compound 0.5 µM): 0.65
relative viability (RERF-LC-KJ; first compound 0.005 µM): 0.742
relative viability (RERF-LC-KJ; first compound 0.01581 µM): 0.657
relative viability (RERF-LC-KJ; first compound 0.05 µM): 0.864
relative viability (RERF-LC-KJ; first compound 0.1581 µM): 0.499
relative viability (RERF-LC-KJ; first compound 0.5 µM): 0.36
